According to patent US12410179B2, “Modulators of TNF alpha activity and uses thereof” (RayThera, Inc., priority 2023, dated 2025):

What follows are compounds tested against TNFα (Homo sapiens, UniProt P01375) (assay: HEK-Blue hTNFα reporter assay). Details: HEK-Blue hTNFα reporter cells, SEAP readout; read-out: IC50 Range.
Sequence of TNFα (P01375 77-233 limits assumed): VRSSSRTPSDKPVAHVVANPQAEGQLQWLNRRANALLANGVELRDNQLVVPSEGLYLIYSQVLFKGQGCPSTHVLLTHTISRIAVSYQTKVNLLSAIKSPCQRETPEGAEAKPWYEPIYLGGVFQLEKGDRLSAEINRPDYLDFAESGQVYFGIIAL
Format: cell-based
Set-up: purchased R&D biosystem (R&D Systems) 210-TA-020/CF
Summary of the method: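 IC50 from 4-parameter regression of % inhibition, with OD620 of secreted SEAP (QUANTI-Blue, 1 h) referenced to cells with and without hTNFα. HEK-Blue TNFα reporter cells were exposed 24 h to compound premixed 1 h with hTNFα ([…]).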
CN1C(=O)c2cccc(OC(F)F)c2[C@H]2C[C@@H]1c1nn3cc(F)c(-c4cnc([C@]5(O)C[C@@](C)(O)C5)nc4)cc3c12 [Example 109] was tested, and the IC50 was < 25 nM.
CN1C(=O)c2cccc(OC(F)F)c2[C@H]2C[C@@H]1c1nn3ccc(-c4cnc([C@]5(O)CC[C@H](O)C5)nc4)cc3c12 [Example 111] was tested, and the IC50 was < 25 nM.
CN1C(=O)c2cccc(OC(F)F)c2[C@H]2C[C@@H]1c1nn3ccc(-c4cnc([C@@]5(O)CC[C@@H](O)C5)nc4)cc3c12 [Example 112] was tested, and the IC50 was < 25 nM.
[2H]C([2H])([2H])N1C(=O)c2cccc(OC(F)F)c2[C@H]2C[C@@H]1c1nn3cc(F)c(-c4ccc(P(C)(C)=O)nc4)cc3c12 [Example 113] was tested, and the IC50 was < 25 nM.
For CN1C(=O)c2cccc(OC(F)F)c2[C@H]2C[C@@H]1c1nn3cc(F)c(-c4cnc([C@](C)(O)CO)nc4)cc3c12 [Example 114], the IC50 was < 25 nM.
In the case of CN1C(=O)c2cccc(OC(F)F)c2[C@H]2C[C@@H]1c1nn3cc(F)c(-c4cnc([C@@](C)(O)CO)nc4)cc3c12 [Example 115], the IC50 is reported as < 25 nM.
With CN1C(=O)c2cccc(OC(F)F)c2[C@H]2C[C@@H]1c1nn3cc(F)c(-c4cnc([C@@](C)(O)CC#N)nc4)cc3c12 [Example 116] the IC50 was < 25 nM.
With CN1C(=O)c2cccc(OC(F)F)c2[C@H]2C[C@@H]1c1nn3cc(F)c(-c4cnc([C@](C)(O)CC#N)nc4)cc3c12 [Example 117] the IC50 was < 25 nM.
In the case of C[C@H](O)[C@@H](O)c1ncc(-c2ccn3nc4c(c3c2)[C@@H]2C[C@H]4N(C)C(=O)c3cccc(OC(F)F)c32)cn1 [Example 118], the IC50 is reported as < 25 nM.
For C[C@@H](O)[C@H](O)c1ncc(-c2ccn3nc4c(c3c2)[C@@H]2C[C@H]4N(C)C(=O)c3cccc(OC(F)F)c32)cn1 [Example 119], the IC50 was < 25 nM.
In the case of CN1C(=O)c2cccc(OC(F)F)c2[C@H]2C[C@@H]1c1nn3cc(F)c(-c4ccc([S@@](=N)(=O)C5CC5)nc4)cc3c12 [Example 120], the IC50 is reported as < 25 nM.
With CN1C(=O)c2cccc(OC(F)F)c2[C@H]2C[C@@H]1c1nn3ccc(-c4ccc(P(C)(C)=O)cn4)cc3c12 [Example 122] the IC50 was < 25 nM.
With CN1C(=O)c2cccc(OC(F)F)c2[C@H]2C[C@@H]1c1nn3ccc(-c4ccc(P(C)(C)=O)cc4)cc3c12 [Example 123] the IC50 was < 25 nM.
[2H]C([2H])([2H])N1C(=O)c2cccc(OC(F)F)c2[C@H]2C[C@@H]1c1nn3ccc(-c4ccc(S(=N)(=O)CC)nc4)cc3c12 (stereo partly shown) [Example 124] was tested, and the IC50 was < 25 nM.
With CN1C(=O)c2cccc(OC(F)F)c2[C@H]2C[C@@H]1c1nn3cc(F)c(-c4cnc([C@]5(O)C[C@@H](O)C5)nc4)cc3c12 [Example 125] the IC50 was < 25 nM.
CN1C(=O)c2cccc(OC(F)F)c2[C@H]2C[C@@H]1c1nn3ccc(-c4cnc(S(=N)(=O)C5CC5)cn4)cc3c12 (stereo partly shown) [Example 126] was tested, and the IC50 was < 25 nM.
CP(C)(=O)c1ccc(-c2ccn3nc4c(c3c2)[C@@H]2C[C@H]4NC(=O)c3cccc(OC(F)F)c32)cc1F [Example 127] was tested, and the IC50 was < 25 nM.
In the case of CN1C(=O)c2cccc(OC(F)F)c2[C@H]2C[C@@H]1c1nn3cc(F)c(-c4cnc(P(C)(C)=O)cn4)cc3c12 [Example 128], the IC50 is reported as < 25 nM.
With CN1C(=O)c2cccc(OC(F)F)c2[C@H]2C[C@@H]1c1nn3ccc(-c4ncc([C@@H](O)[C@@H]5CCO5)cn4)cc3c12 [Example 129] the IC50 was < 25 nM.
For CN1C(=O)c2cccc(OC(F)F)c2[C@H]2C[C@@H]1c1nn3ccc(-c4ncc([C@@H](O)[C@H]5CCO5)cn4)cc3c12 [Example 130], the IC50 was < 25 nM.
With CN1C(=O)c2cccc(OC(F)F)c2[C@H]2C[C@@H]1c1nn3ccc(-c4ncc([C@H](O)[C@@H]5CCO5)cn4)cc3c12 [Example 131] the IC50 was < 25 nM.
CN1C(=O)c2cccc(OC(F)F)c2[C@H]2C[C@@H]1c1nn3ccc(-c4ncc([C@H](O)[C@H]5CCO5)cn4)cc3c12 [Example 132] was tested, and the IC50 was < 25 nM.
For CN1C(=O)c2cccc(OC(F)F)c2[C@H]2C[C@@H]1c1nn3ccc(-c4cnc([C@H](O)C(C)(C)O)nc4)cc3c12 [Example 133], the IC50 was < 25 nM.
In the case of CN1C(=O)c2cccc(OC(F)F)c2[C@H]2C[C@@H]1c1nn3ccc(-c4cnc([C@@H](O)C(C)(C)O)nc4)cc3c12 [Example 134], the IC50 is reported as < 25 nM.
In the case of C[C@H](O)[C@H](O)c1ncc(-c2ccn3nc4c(c3c2)[C@@H]2C[C@H]4N(C)C(=O)c3cccc(OC(F)F)c32)cn1 [Example 135], the IC50 is reported as < 25 nM.
CN1C(=O)c2cccc(OC(F)F)c2[C@H]2C[C@@H]1c1nn3ccc(-c4cnc([C@@H](O)C5COC5)nc4)cc3c12 [Example 136] was tested, and the IC50 was < 25 nM.
CN1C(=O)c2cccc(OC(F)F)c2[C@H]2C[C@@H]1c1nn3ccc(-c4cnc([C@H](O)C5COC5)nc4)cc3c12 [Example 137] was tested, and the IC50 was < 25 nM.
CN1C(=O)c2cccc(OC(F)F)c2[C@H]2C[C@@H]1c1nn3ccc(-c4ncc(P(C)(C)=O)cn4)cc3c12 [Example 138] was tested, and the IC50 was < 25 nM.
CN1C(=O)c2cccc(OC(F)F)c2[C@H]2C[C@@H]1c1nn3ccc(-c4cnc([C@]5(O)C[C@](C)(O)C5)nc4)cc3c12 [Example 139] was tested, and the IC50 was < 25 nM.
With O=C1N[C@@H]2C[C@H](c3c(OC(F)F)cccc31)c1c2nn2ccc(-c3cnc(C4(O)CCC4)nc3)cc12 [Example 140] the IC50 was < 25 nM.
With CN1C(=O)c2cccc(OC(F)F)c2[C@H]2C[C@@H]1c1nn3ccc(-c4ncc([C@]5(O)C[C@@](C)(O)C5)cn4)cc3c12 [Example 142] the IC50 was < 25 nM.
In the case of CN1C(=O)c2cccc(OC(F)F)c2[C@H]2C[C@@H]1c1nn3ccc(-c4cnc(N5CCNCC5)nc4)cc3c12 [Example 143], the IC50 is reported as < 25 nM.
For CN1C(=O)c2cccc(OC(F)F)c2[C@H]2C[C@@H]1c1nn3cnc(-c4ccc(P(C)(C)=O)c(F)c4)cc3c12 [Example 144], the IC50 was < 25 nM.
For CN1C(=O)c2cccc(OC(F)F)c2[C@H]2C[C@@H]1c1nn3ccc(-c4cnc(N5CCN(CCO)CC5)nc4)cc3c12 [Example 145], the IC50 was < 25 nM.
CN1C(=O)c2cccc(OC(F)F)c2[C@H]2C[C@@H]1c1nn3cnc(-c4cnc(C5(N)CC(F)(F)C5)nc4)cc3c12 [Example 146] was tested, and the IC50 was < 25 nM.
With Cc1nc([C@]2(O)C[C@@](C)(O)C2)ncc1-c1ccn2nc3c(c2c1)[C@@H]1C[C@H]3N(C)C(=O)c2cccc(OC(F)F)c21 [Example 147] the IC50 was < 25 nM.
For CC(=O)N1CCN(c2ncc(-c3ccn4nc5c(c4c3)[C@@H]3C[C@H]5N(C)C(=O)c4cccc(OC(F)F)c43)cn2)CC1 [Example 148], the IC50 was < 25 nM.
In the case of O=C1N[C@@H]2C[C@H](c3c(OC(F)F)cccc31)c1c2nn2ccc(-c3cnc(C4(O)CC(F)(F)C4)nc3)cc12 [Example 150], the IC50 is reported as < 25 nM.
For C[C@@](O)(c1ncc(-c2ccn3nc4c(c3c2)[C@@H]2C[C@H]4NC(=O)c3cccc(OC(F)F)c32)cn1)C(F)F [Example 151], the IC50 was < 25 nM.
For C[C@](O)(c1ncc(-c2ccn3nc4c(c3c2)[C@@H]2C[C@H]4NC(=O)c3cccc(OC(F)F)c32)cn1)C(F)F [Example 152], the IC50 was < 25 nM.
With [2H]C([2H])([2H])N1C(=O)c2cccc(OC(F)F)c2[C@H]2C[C@@H]1c1nn3ccc(-c4cnc(C5(O)COC5)nc4)cc3c12 [Example 153] the IC50 was < 25 nM.
With CN1C(=O)c2cccc(OC(F)F)c2[C@H]2C[C@@H]1c1nn3ccc(-c4ccc([C@]5(N)C[C@@](C)(C(=O)O)C5)c(F)c4)cc3c12 [Example 154] the IC50 was < 25 nM.
CN1CCN(c2ncc(-c3ccn4nc5c(c4c3)[C@@H]3C[C@H]5N(C)C(=O)c4cccc(OC(F)F)c43)cn2)CC1 [Example 155] was tested, and the IC50 was < 25 nM.
